In patent US20260256716A1, “COMPOSITIONS AND METHODS OF USE THEREOF” (Board of Supervisors of Louisiana State University and …, priority 2023, published 2026):

Legend:
Type in all cases: cell-based, human
[1] = tested on: ARPE-19 cells; experiment: ARPE-19 proliferation (DAPI cell number, fold change in growth); details: ARPE-19, 72 h, R-DOI 0.1 nM or 1 nM
Description: Specific 5-HT2A Receptor Activation via Model Phenethylamines, like R-DOI. […] ARPE-19 cells were plated in nutrient rich media, DMEM, containing 7% dialyzed FCS and then starved in DMEM media containing 0.5% dialyzed FCS. Cells were then changed to 7% dialyzed FCS DMEM media containing physiolocial relevant levels of serotonin at varying concentrations and grown for 72-hours. Cell numbers were determined through DNA staining with DAPI and fold change in growth was determined from baseline readings at 24-hours. To assess if agonists of the 5HT2A receptor could enhance cell health and proliferation specifically through the 5-HT2A receptor, the model 5-HT2A receptor agonist, R-DOI was added at either 0.1 nM or 1 nM. […] Also, included is a summary of physiological serotonin and 5-HT2A receptor agonist/antagonist outcomes on cellular proliferation. This increase in proliferation promotes the formation of a compact RPE-monolayer which is important for maintaining a healthy blood-retinal barrier and can occur with low dose administration of 5-HT2A receptor agonists.
ARPE-19 cells were plated in nutrient rich media, DMEM, containing 7% dialyzed FCS and then starved in DMEM media containing 0.5% dialyzed FCS. Cells were then changed to 7% dialyzed FCS DMEM media containing physiological relevant levels of serotonin at varying concentrations and grown for 72-hours. Cell numbers were determined through DNA staining with DAPI and fold change in growth was determined from baseline readings at 24-hours. To assess if serotonin enhances cell health and proliferation specifically through the 5-HT2A receptor, the 5-HT2A receptor antagonist, M100,907 at 10 nM was included during serotonin induction.

[2] = tested on: ARPE-19 cells; experiment: Hyperglycemia induced SA-β-Gal cellular senescence in ARPE-19 cells (HPLM); details: 10 nM; HPLM with 5, 10, 20 or 30 mM glucose, 72 hours
Description: Consistent with Retinal Deterioration by Glucose-Induced Cellular Senescence in the Diabetic Population, Hyperglycemic conditions induce increased disease promoting Cellular Senescence that is abrogated by low nM concentrations of the Representative 5-HT2A Receptor Agonist, R-DOI Returning to Base-line Homeostatic Levels. ARPE-19 cells in physiologically relevant media (HPLM; 7% FCS) were seeded overnight prior to being replaced with starvation media (HPLM 0.5% FCS) containing 10 nM R-DOI. After overnight incubation in starvation media, cells were swapped to media containing diabetic blood glucose levels (HPLM 7% FCS containing 5 mM, 10 mM, 20 mM, or 30 mM glucose) for 72-hours. After the 72-hour incubation, cells were fixed and stained for SA-β-Gal for 6-hours. Cells nuclei were then stained with DAPI for total-cell enumeration. SA-β-Gal positive cells, and total cells per frame, were quantified by microscopy. Pathological/diabetic glucose concentrations induce cellular senescence. 5-HT2A receptor agonism alleviates glucose-induced senescence at diabetic blood glucose levels. […]
Effects of specific phenethylamine 5-HT2A receptor agonists on reduction of Hyperglycemia induced Disease Promoting Cellular Senescence: Inhibition of Cell Senescence and Disease Processes are Drug and Dose Dependent. […] SA-3-Gal positive cells, and total cells per frame, were quantified by microscopy. For each 5-HT2A agonist assessed, the % of senescent cells is expressed relative to the hyperglycemic control. […]
Inhibition of Cell Senescence and Disease Processes are Drug and Dose Dependent. […] SA-β-Gal positive cells, and total cells per frame, were quantified by microscopy. For each 5-HT2A agonist assessed, the % of senescent cells is expressed relative to the hyperglycemic control. […]

[3] = tested on: NRF-2; experiment: Western blot of NRF-2 expression in ARPE cells after H2O2 oxidative stress; details: 1000 nM to 1 nM overnight, then H2O2, 24 hours, lower doses highest
Description: ARPE cells were plated and treated with 10-fold dilutions of R-DOI from 1000 nM to 1 nM. Following an overnight treatment, cells were incubated with hydrogen peroxide (H2O2) to mimic an oxidative stress induced disease event. 24 hours later, cell lysates were collected and protein levels were normalized among samples and run on a western blot for comparison of NRF-2 expression relative to a cellular protein loading control, b-actin. While doses increased protective NRF-2 expression, lower doses increased NRF-2 to the highest levels, accentuating the need for appropriate dose ranges in facilitating treatment effects.

Compound: COc1cc(C[C@@H](C)N)c(OC)cc1I (single isomer, unassigned) [R-DOI, R enantiomer 2,5-Dimethoxy-4-iodoamphetamine]
- proliferation of RPE (fold change in growth) [1]: Stimulate and Restore Healthy Proliferation of RPE
- hyperglycemia induced cellular senescence (SA-β-Gal positive cells) [2]: abrogated
- NRF-2 expression [3]: Increases Expression of the master regulator of antioxidant gene expression NRF-2
- NRF-2 expression ([3]; listed as (R)-DOI): Upregulates Expression of NRF-2
